In US10202378B2, “Therapeutic compounds and uses thereof” (GENENTECH, INC., priority 2015, dated 2019) one finds IC50 data, which are given here for 23 compounds.

The target of one assay is TAF1-BD2 (Homo sapiens, UniProt P21675). The assay is described as follows: TAF1-BD2 TR-FRET Binding Assay. The following applies: read-out: TAF1-BD2 HTRF IC50. Here is the method:
IC50 Measurements for Inhibitors Using TAF1-BD2 TR-FRET Binding Assay
His/Flag epitope tagged TAF1-BD21504-1635 was cloned, expressed, and purified to homogeneity. TAF1-BD2 binding and inhibition was assessed by monitoring the engagement of a biotinylated small molecule compound 1000 with the target using the TR-FRET assay technology (Perkin-Elmer). Specifically, in a 384 well ProxiPlate, TAF1-BD2 (0.012 uM final) in 50 mM HEPES (pH 7.5; final), 50 mM NaCl (final), 1 mM TCEP (final), 0.1 mg/mL BSA (final), and 0.069 mM Brij-35 (final) was added either in the presence of DMSO (final 0.2% DMSO) or compound dilution series in DMSO. After a 10 minute incubation at room temperature, biotin-ligand (0.04 uM final) was added. After 10 minutes incubation at room temperature, a mixture Eu-W1024 Anti-6×His antibody (Perkin Elmer AD0110) and SureLight™ Streptavidin-Allophycocyanin (SA-APC, Perkin Elmer CR130-100) were added to a final concentration of 0.2 nM antibody and 0.025 uM SA-APC, respectively. After forty minutes of equilibration at room temperature, the plates were read on an Envision instrument and IC50s calculated using a four parameter logistic model (XLFIT).
In general terms: TR-FRET usually uses a lanthanide donor and a delayed reading to cut background.

The target of another assay is TAF1-BD1 (Homo sapiens, UniProt P21675). The assay can be described thus: TAF1-BD1 TR-FRET Binding Assay. The following applies: read-out: TAF1-BD1 HTRF IC50. Here is the method:
IC50 Measurements for Inhibitors Using TAF1-BD1 TR-FRET Binding Assay
His/Flag epitope tagged TAF1-BD11381-1497 was cloned, expressed, and purified to homogeneity. TAF1-BD binding and inhibition was assessed by monitoring the engagement of a biotinylated small molecule compound 1000 with the target using the TR-FRET assay technology (Perkin-Elmer). Specifically, in a 384 well ProxiPlate, TAF1-BDI (0.08 uM final) in 50 mM HEPES (pH 7.5; final), 50 mM NaCl (final), 1 mM TCEP (final), 0.1 mg/mL BSA (final), and 0.069 mM Brij-35 (final) was added either in the presence of DMSO (final 0.2% DMSO) or compound dilution series in DMSO. After a 10 minute incubation at room temperature, biotin-ligand (0.08 uM final) was added. After 10 minutes incubation at room temperature, a mixture Eu-W1024 Anti-6×His antibody (Perkin Elmer ADO 110) and SureLight™ Streptavidin-Allophycocyanin (SA-APC, Perkin Elmer CR130-100) were added to final concentrations of 0.2 nM antibody and 0.05 uM SA-APC, respectively. After forty minutes of equilibration at room temperature, the plates were read on an Envision instrument and IC50s calculated using a four parameter logistic model (XLFIT).

In general, IC50 refers to the concentration needed to halve the response being measured.

For `Cc1[nH]c2c(=O)n(C)cc(C#CC(C)(O)C3CC3)c2c1-c1nnc(C2CCOC2)o1` (stereo not shown) [Example 175, 4-(3-cyclopropyl-3-hydroxy-but-1-ynyl)-2,6-dimethyl-3-(5-tetrahydrofuran-3-yl-1,3,4-oxadiazol-2-yl)-1H-pyrrolo[2,3-c]pyridin-7-one], the half-inhibitory concentration (IC50) was determined as 46.7 nM on TAF1-BD2 and 248 nM at TAF1-BD1.

As to `CCOC(=O)c1c(C)[nH]c2c(=O)n(C)cc(C#CC(O)(CC)CC)c12` [Example 24, ethyl 4-(3-ethyl-3-hydroxy-pent-1-ynyl)-2,6-dimethyl-7-oxo-1H-pyrrolo[2,3-c]pyridine-3-carboxylate], the results for the IC50 on TAF1-BD2 and on TAF1-BD1 were 138 nM and 536 nM, respectively.

With `C=CCCn1cc(C#CC(C)(C)C(N)=O)c2c(C(=O)OCC)c(C)[nH]c2c1=O` [Example 48, ethyl 4-(4-amino-3,3-dimethyl-4-oxo-but-1-ynyl)-6-but-3-enyl-2-methyl-7-oxo-1H-pyrrolo[2,3-c]pyridine-3-carboxylate], the IC50 on TAF1-BD2 is 312 nM; on TAF1-BD1 it was 1280 nM.

`CCOC(=O)c1c(C)[nH]c2c(=O)n(C)cc(C#CC(C)(C)OC)c12` [Example 26, ethyl 4-(3-methoxy-3-methyl-but-1-ynyl)-2,6-dimethyl-7-oxo-1H-pyrrolo[2,3-c]pyridine-3-carboxylate]: the IC50 came to 284 nM at TAF1-BD2 and 503 nM at TAF1-BD1.

Regarding `CCOC(=O)c1c(C)[nH]c2c(=O)n(C)cc(C#CC(O)(c3cccc(-c4cn[nH]c4)c3)C(F)(F)F)c12` (stereo not shown) [Example 41, ethyl 2,6-dimethyl-7-oxo-4-[4,4,4-trifluoro-3-hydroxy-3-[3-(1H-pyrazol-4-yl)phenyl]but-1-ynyl]-1H-pyrrolo[2,3-c]pyridine-3-carboxylate], the IC50 on TAF1-BD2 was determined as 21.5 nM; on TAF1-BD1, 171 nM.

Consider `C=CCCn1cc(C#CC(C)(O)CC#N)c2c(C(=O)OCC)c(C)[nH]c2c1=O` (stereo not shown) [Example 72, ethyl 6-but-3-enyl-4-(4-cyano-3-hydroxy-3-methyl-but-1-ynyl)-2-methyl-7-oxo-1H-pyrrolo[2,3-c]pyridine-3-carboxylate], for which the results for the IC50 on TAF1-BD2 and at TAF1-BD1 were 181 nM and more than 20000 nM, respectively.

As to `Cc1[nH]c2c(=O)n(C)cc(C#CC(C)(O)C3CC3)c2c1-c1nnc(C2CCOC2)o1` (single isomer, unassigned) [Example 96a, 4-(3-cyclopropyl-3-hydroxy-but-1-ynyl)-2,6-dimethyl-3-(5-tetrahydrofuran-3-yl-1,3,4-oxadiazol-2-yl)-1H-pyrrolo[2,3-c]pyridin-7-one], the IC50 at TAF1-BD2 turned out to be 40.7 nM; on TAF1-BD1, 182 nM.

Consider `CCOC(=O)c1c(C)[nH]c2c(=O)n(C)cc(C#CC(C)(C)CO)c12` [Example 15, ethyl 4-(4-hydroxy-3,3-dimethyl-but-1-ynyl)-2,6-dimethyl-7-oxo-1H-pyrrolo[2,3-c]pyridine-3-carboxylate], for which the IC50 at TAF1-BD2 was 189 nM; on TAF1-BD1, 343 nM.

Turning to `Cc1[nH]c2c(=O)n(C)cc(C#CC(O)(c3ccccc3)C(F)(F)F)c2c1-c1nnc(CCN(C)C)o1` (stereo not shown) [Example 178, 3-[5-[2-(dimethylamino)ethyl]-1,3,4-oxadiazol-2-yl]-2,6-dimethyl-4-(4,4,4-trifluoro-3-hydroxy-3-phenyl-but-1-ynyl)-1H-pyrrolo[2,3-c]pyridin-7-one], the IC50 came out at 88.1 nM on TAF1-BD2 and 725 nM on TAF1-BD1.

With `CCOC(=O)c1c(C)[nH]c2c(=O)n(C)cc(C#Cc3ccc(OC)cc3)c12` [Example 58, ethyl 4-[2-(4-methoxyphenyl)ethynyl]-2,6-dimethyl-7-oxo-1H-pyrrolo[2,3-c]pyridine-3-carboxylate], the IC50 at TAF1-BD2 was 38.4 nM; at TAF1-BD1 it was 315 nM.

Regarding `CCOC(=O)c1c(C)[nH]c2c(=O)n(C)cc(C#CC(C)(O)C(C)C)c12` (stereo not shown) [Example 70, ethyl 4-(3-hydroxy-3,4-dimethyl-pent-1-ynyl)-2,6-dimethyl-7-oxo-1H-pyrrolo[2,3-c]pyridine-3-carboxylate], the IC50 at TAF1-BD2 is 82.3 nM; at TAF1-BD1, 515 nM.

With `COc1ccccc1COC(=O)c1c(C)[nH]c2c(=O)n(C)cc(C#CC(C)(C)O)c12` [Example 113, (2-methoxyphenyl)methyl-4-(3-hydroxy-3-methyl-but-1-ynyl)-2,6-dimethyl-7-oxo-1H-pyrrolo[2,3-c]pyridine-3-carboxylate], the IC50 stood at 24 nM at TAF1-BD2 and 123 nM at TAF1-BD1.

On to `CCOC(=O)c1c(C)[nH]c2c(=O)n(C)cc(C#CC(C)(O)C3CC3)c12` (single isomer, unassigned) [Example 92b, ethyl 4-(3-cyclopropyl-3-hydroxy-but-1-ynyl)-2,6-dimethyl-7-oxo-1H-pyrrolo[2,3-c]pyridine-3-carboxylate], for which the IC50 on TAF1-BD2 turned out to be 230 nM; at TAF1-BD1, 1090 nM.

Turning to `Cc1[nH]c2c(=O)n(C)cc(C#CC(C)(O)C3CC3)c2c1-c1nnc(C(C)C)o1` (stereo not shown) [Example 191, 4-(3-cyclopropyl-3-hydroxy-but-1-ynyl)-3-(5-isopropyl-1,3,4-oxadiazol-2-yl)-2,6-dimethyl-1H-pyrrolo[2,3-c]pyridin-7-one], the IC50 on TAF1-BD2 turned out to be 36.4 nM; at TAF1-BD1, 270 nM.

For the compound `Cc1[nH]c2c(=O)n(C)cc(C#CC(O)(c3ccccc3)C(F)(F)F)c2c1C(=O)OC(C)c1ccccc1` (stereo not shown) [Example 104, 1-phenylethyl 2,6-dimethyl-7-oxo-4-(4,4,4-trifluoro-3-hydroxy-3-phenyl-but-1-ynyl)-1H-pyrrolo[2,3-c]pyridine-3-carboxylate], the IC50 is 1200 nM at TAF1-BD2 and 3210 nM on TAF1-BD1.

For `CCOC(=O)c1c(C)[nH]c2c(=O)n(C)cc(C#CC(O)(c3ccccc3)C(F)F)c12` (single isomer, unassigned) [Example 93a, ethyl 4-(4,4-difluoro-3-hydroxy-3-phenyl-but-1-ynyl)-2,6-dimethyl-7-oxo-1H-pyrrolo[2,3-c]pyridine-3-carboxylate], the IC50 worked out at 65.5 nM at TAF1-BD2 and 599 nM on TAF1-BD1.

Consider `CCOC(=O)c1c(C)[nH]c2c(=O)n(C)cc(C#Cc3ccccc3)c12` [Example 55, ethyl 2,6-dimethyl-7-oxo-4-(2-phenylethynyl)-1H-pyrrolo[2,3-c]pyridine-3-carboxylate], for which the IC50 came out at 74 nM on TAF1-BD2 and 457 nM at TAF1-BD1.

Consider `Cc1cc([C@](C)(O)C#Cc2cn(C)c(=O)c3[nH]c(C)c(-c4nnc(C5CC5)o4)c23)no1` [Example 190, 3-(5-cyclopropyl-1,3,4-oxadiazol-2-yl)-4-[(3R)-3-hydroxy-3-(5-methylisoxazol-3-yl)but-1-ynyl]-2,6-dimethyl-1H-pyrrolo[2,3-c]pyridin-7-one], for which the values for the IC50 on TAF1-BD2 and at TAF1-BD1 were 49.9 nM and 239 nM, respectively.

For the compound `CCOC(=O)c1c(C)[nH]c2c(=O)n(C)cc(C#CC(O)(c3ccn(C)n3)C(F)(F)F)c12` (stereo not shown) [Example 42, ethyl 2,6-dimethyl-7-oxo-4-[4,4,4-trifluoro-3-hydroxy-3-(1-methylpyrazol-3-yl)but-1-ynyl]-1H-pyrrolo[2,3-c]pyridine-3-carboxylate], the IC50 is 96.9 nM at TAF1-BD2 and 657 nM at TAF1-BD1.

For `CCOC(=O)c1c(C)[nH]c2c(=O)n(C)cc(C#CC(O)(c3cccc(C#N)c3)C(F)(F)F)c12` (stereo not shown) [Example 40, ethyl 4-(3-(3-cyanophenyl)-4,4,4-trifluoro-3-hydroxybut-1-yn-1-yl)-2,6-dimethyl-7-oxo-6,7-dihydro-1H-pyrrolo[2,3-c]pyridine-3-carboxylate], the IC50 on TAF1-BD2 was 69.2 nM; on TAF1-BD1, 355 nM.

`CCOC(=O)c1c(C)[nH]c2c(=O)n(C)cc(C#CC(C)(C)NC(C)=O)c12` [Example 22, ethyl 4-(3-acetamido-3-methyl-but-1-ynyl)-2,6-dimethyl-7-oxo-1H-pyrrolo[2,3-c]pyridine-3-carboxylate]: the values for the IC50 on TAF1-BD2 and at TAF1-BD1 were 523 nM and 804 nM, respectively.

`Cc1ccccc1COC(=O)c1c(C)[nH]c2c(=O)n(C)cc(C#CC(O)(c3ccccc3)C(F)(F)F)c12` (stereo not shown) [Example 108, o-tolylmethyl 2,6-dimethyl-7-oxo-4-(4,4,4-trifluoro-3-hydroxy-3-phenyl-but-1-ynyl)-1H-pyrrolo[2,3-c]pyridine-3-carboxylate]: the IC50 on TAF1-BD2 is 1260 nM; at TAF1-BD1, 3350 nM.

On to `CCOC(=O)c1c(C)[nH]c2c(=O)n(C)cc(C#CCCO)c12` [Example 82, ethyl 4-(4-hydroxybut-1-ynyl)-2,6-dimethyl-7-oxo-1H-pyrrolo[2,3-c]pyridine-3-carboxylate], for which the IC50 at TAF1-BD2 turned out to be 337 nM; at TAF1-BD1, 1750 nM.
